Each compound was assayed on HEK293T cells carrying the ATF4 luciferase reporter (assay: ATF4-Luc assay (in vitro model of VWMD)). Conditions: Homo sapiens, HEK-293T; HEK293T cells with ATF4 5'-UTR firefly luciferase reporter; 1 μg/mL tunicamycin; 7 hours; One Glo luminescence.
Format: cell-based
In short: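 Compound at 200 nM and tunicamycin at 1 μg/mL were given together for 7 h to HEK293T cells stably transduced with an ATF4 5′-UTR-driven firefly luciferase reporter. Read-out by luminescence, reported as EC50.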
`O=C(COc1ccc(Cl)c(F)c1)N[C@H]1CC[C@@H](C(=O)N2CC(c3ccc(Cl)cc3)C2)CC1` [Compound 133, 2-(4-chloro-3-fluorophenoxy)-N-{(1s,4s)-4-[3-(4-chlorophenyl)azetidine-1-carbonyl]cyclohexyl}acetamide] showed an EC50 of over 2000 nM. With `O=C(COc1ccc(C(F)(F)F)nc1)N[C@H]1CC[C@H](C(=O)NCc2nc3cc(Cl)ccc3[nH]2)CC1` [Compound 147, (1r,4r)-N-[(5-chloro-1H-benzimidazol-2-yl)methyl]-4-(2-{[6-(trifluoromethyl)pyridin-3-yl]oxy}acetamido)cyclohexane-1-carboxamide] the EC50 was over 2000 nM. For `O=C(COc1ccc(Cl)c(F)c1)N[C@@H]1CC[C@@H](C(=O)NCc2cn3ccc(Cl)cc3n2)OC1` [Compound 138, (2S,5R)-5-[2-(4-chloro-3-fluorophenoxy)acetamido]-N-[(7-chloroimidazo[1,2-a]pyridin-2-yl)methyl]oxane-2-carboxamide], the EC50 was 10 to 50 nM. Compound `O=C(COc1ccc(Cl)c(Cl)c1)N[C@H]1CC[C@H](C(=O)NCc2ccc(OC(F)F)cc2)CC1` [Compound 104, (1r,4r)-4-[2-(3,4-dichlorophenoxy)acetamido]-N-{[4-(difluoromethoxy)phenyl]methyl}cyclohexane-1-carboxamide] has an EC50 of 50 to 250 nM. In the case of `O=C(COc1ccc(Cl)c(F)c1)N[C@@H]1CC[C@@H](C(=O)NCc2cc3cc(Cl)ccc3[nH]2)OC1` [Compound 142, (2S,5R)-5-[2-(4-chloro-3-fluorophenoxy)acetamido]-N-[(5-chloro-1H-indol-2-yl)methyl]oxane-2-carboxamide], the EC50 is reported as 50 to 250 nM. For `Cc1cncc(CNC(=O)[C@H]2CC[C@H](NC(=O)COc3ccc(Cl)c(F)c3)CC2)c1` [Compound 108, (1r,4r)-4-[2-(4-chloro-3-fluorophenoxy)acetamido]-N-[(5-methylpyridin-3-yl)methyl]cyclohexane-1-carboxamide], the EC50 was over 2000 nM. For `O=C(COc1ccc(F)c(F)c1)N[C@H]1CC[C@H](C(=O)NCc2nc3cc(F)c(F)cc3[nH]2)CC1` [Compound 154, (1r,4r)-N-[(5,6-difluoro-1H-benzimidazol-2-yl)methyl]-4-[2-(3,4-difluorophenoxy)acetamido]cyclohexane-1-carboxamide], the EC50 was over 2000 nM. Compound `O=C(NCc1ccc(C(F)(F)F)cn1)[C@@H]1CC[C@@H](NC(=O)[C@H]2CNc3cc(Cl)ccc3O2)CO1` (single isomer, unassigned) [Compound 164] has an EC50 of 50 to 250 nM. For `O=C(COc1ccc(Cl)c(F)c1)N[C@H]1CC[C@H](C(=O)Nc2ccc(OCC(F)(F)F)nc2)CC1` [Compound 115, (1r,4r)-4-[2-(4-chloro-3-fluorophenoxy)acetamido]-N-[6-(2,2,2-trifluoroethoxy)pyridin-3-yl]cyclohexane-1-carboxamide], the EC50 was 500 to 2000 nM. In the case of `O=C(COc1ccc(Cl)c(F)c1)N[C@H]1CC[C@H](C(=O)NCc2cc(C(F)(F)F)ccn2)CC1` [Compound 171, (1r,4r)-4-[2-(4-chloro-3-fluorophenoxy)acetamido]-N-{[4-(trifluoromethyl)pyridin-2-yl]methyl}cyclohexane-1-carboxamide], the EC50 is reported as 50 to 250 nM.

Source: patent US11939320B2, “Modulators of the integrated stress pathway” (Calico Life Sciences LLC, priority 2017, dated 2024)
